Results from ChEMBL document CHEMBL5500358, “Identification of CH2-linked quinolone-aminopyrimidine hybrids as potent anti-MRSA agents: Low resistance potential and lack of cross-resistance with fluoroquinolone antibiotics” (Eur J Med Chem, 2024).
Values after ≈ are worked out from the molar mass of the structure shown.

Assays:
[1] = Metabolic stability in rat liver microsomes assessed as compound remaining at 1 uM measured after 60 mins by LC-MS/MS analysis; format: ADME, Microsome; conditions: read-out: Stability
[2] = Initial drug concentration in male Sprague-Dawley rat at 10 mg/kg, iv administered as single dose and measured upto 24 hrs by LC-MS/MS analysis; format: ADME, organism-based; conditions: in vivo
[3] = Acute toxicity in ICR mouse assessed as animal death at 400 to 2000 mg/kg, po administered as single dose via oral gavage and measured for 8 days; format: organism-based; conditions: in vivo, 192 h, dose 400-2000 mg/kg, time 8 day
[4] = Metabolic stability in human liver microsomes assessed as drug elimination rate constant at 1 uM by LC-MS/MS analysis; format: ADME, Microsome
[5] = Clearance in male Sprague-Dawley rat at 10 mg/kg, iv administered as single dose and measured upto 24 hrs by LC-MS/MS analysis; format: ADME, organism-based; conditions: in vivo
[6] = Acute toxicity in male ICR mouse assessed as effect on body weight at 400 to 2000 mg/kg, po administered as single dose via oral gavage and measured for 8 days; format: organism-based; conditions: in vivo, 192 h, dose 400-2000 mg/kg, time 8 day
[7] = Cmax in male Sprague-Dawley rat at 20 mg/kg, po administered as single dose and measured upto 24 hrs by LC-MS/MS analysis; format: ADME, organism-based; conditions: in vivo
[8] = Metabolic stability in rat liver microsomes assessed as elimination half life at 1 uM by LC-MS/MS analysis; format: ADME, Microsome; conditions: read-out: beta t1/2
[9] = Acute toxicity in ICR mouse assessed as kidney damage at 400 to 2000 mg/kg, po administered as single dose via oral gavage and measured on day 9; format: organism-based; conditions: in vivo, 216 h, dose 400-2000 mg/kg, time 9 day
[10] = Tmax in male Sprague-Dawley rat at 20 mg/kg, po administered as single dose and measured upto 24 hrs by LC-MS/MS analysis; format: ADME, organism-based; conditions: in vivo
[11] = tested on: Escherichia coli; test: Antibacterial activity against Escherichia coli ATCC 25922 incubated for 16 to 18 hrs by absorbance based analysis; format: functional; conditions: time 16-18 hrs
[12] = Metabolic stability in rat liver microsomes assessed as microsomal intrinsic clearance at 1 uM by LC-MS/MS analysis; format: ADME, Microsome; conditions: read-out: CLH
[13] = AUC (0 to infinity) in male Sprague-Dawley rat at 10 mg/kg, iv administered as single dose and measured upto 24 hrs by LC-MS/MS analysis; format: ADME, organism-based; conditions: in vivo
[14] = Half life in male Sprague-Dawley rat at 10 mg/kg, iv administered as single dose and measured upto 24 hrs by LC-MS/MS analysis; format: ADME, organism-based; conditions: in vivo
[15] = tested on: A549; test: Cytotoxicity against human A549 cells assessed as reduction in cell viability at 100 uM incubated for 24 hrs by CCK-8 assay; format: toxicity, cell-based; conditions: a549, 24 h
[16] = AUC (0 to infinity) in male Sprague-Dawley rat at 20 mg/kg, po administered as single dose and measured upto 24 hrs by LC-MS/MS analysis; format: ADME, organism-based; conditions: in vivo
[17] = MRT (0 to infinity) in male Sprague-Dawley rat at 10 mg/kg, iv administered as single dose and measured upto 24 hrs by LC-MS/MS analysis; format: ADME, organism-based; conditions: in vivo
[18] = Acute toxicity in ICR mouse assessed as abnormal behaviors at 400 to 2000 mg/kg, po administered as single dose via oral gavage and measured for 8 days; format: organism-based; conditions: in vivo, 192 h, dose 400-2000 mg/kg, time 8 day
[19] = tested on: Staphylococcus aureus; test: Antibacterial activity against fluoroquinolone-sensitive methicillin resistant Staphylococcus aureus USA500 incubated for 16 to 18 hrs by absorbance based analysis; format: functional; conditions: time 16-18 hrs
[20] = Acute toxicity in ICR mouse assessed as brain damage at 400 to 2000 mg/kg, po administered as single dose via oral gavage and measured on day 9; format: organism-based; conditions: in vivo, 216 h, dose 400-2000 mg/kg, time 9 day
[21] = AUC (0 to t) in male Sprague-Dawley rat at 20 mg/kg, po administered as single dose and measured upto 24 hrs by LC-MS/MS analysis; format: ADME, organism-based; conditions: in vivo
[22] = tested on: HEK293; test: Cytotoxicity against HEK293 cells assessed as reduction in cell viability at 100 uM incubated for 24 hrs by CCK-8 assay; format: toxicity, cell-based; conditions: human, hek293, 24 h
[23] = tested on: Staphylococcus aureus; test: Antibacterial activity against methicillin resistant Staphylococcus aureus ATCC 33591 measured after 15 passages; format: functional
[24] = Acute toxicity in ICR mouse assessed as liver damage at 400 to 2000 mg/kg, po administered as single dose via oral gavage and measured on day 9; format: organism-based; conditions: in vivo, 216 h, dose 400-2000 mg/kg, time 9 day
[25] = tested on: Staphylococcus aureus; test: Antibacterial activity against fluoroquinolone-sensitive methicillin resistant Staphylococcus aureus ATCC 33591 incubated for 16 to 18 hrs by absorbance based analysis; format: functional; conditions: time 16-18 hrs
[26] = MRT (0 to infinity) in male Sprague-Dawley rat at 20 mg/kg, po administered as single dose and measured upto 24 hrs by LC-MS/MS analysis; format: ADME, organism-based; conditions: in vivo
[27] = Acute toxicity in ICR mouse assessed as effect on food intake at 400 to 2000 mg/kg, po administered as single dose via oral gavage and measured for 8 days; format: organism-based; conditions: in vivo, 192 h, dose 400-2000 mg/kg, time 8 day
[28] = Metabolic stability in human liver microsomes assessed as microsomal intrinsic clearance at 1 uM by LC-MS/MS analysis; format: ADME, Microsome; conditions: read-out: CLH
[29] = tested on: Staphylococcus aureus; test: Antibacterial activity against fluoroquinolone/methicillin resistant Staphylococcus aureus Mu50 incubated for 16 to 18 hrs by absorbance based analysis; format: functional; conditions: time 16-18 hrs
[30] = Oral bioavailability in male Sprague-Dawley rat at 20 mg/kg administered as single dose and measured upto 24 hrs by LC-MS/MS analysis; format: ADME, organism-based; conditions: in vivo
[31] = Acute toxicity in ICR mouse assessed as heart damage at 400 to 2000 mg/kg, po administered as single dose via oral gavage and measured on day 9; format: organism-based; conditions: in vivo, 216 h, dose 400-2000 mg/kg, time 9 day
[32] = MRT (0 to t) in male Sprague-Dawley rat at 10 mg/kg, iv administered as single dose and measured upto 24 hrs by LC-MS/MS analysis; format: ADME, organism-based; conditions: in vivo
[33] = Acute toxicity in ICR mouse assessed as lung damage at 400 to 2000 mg/kg, po administered as single dose via oral gavage and measured on day 9; format: organism-based; conditions: in vivo, 216 h, dose 400-2000 mg/kg, time 9 day
[34] = MRT (0 to t) in male Sprague-Dawley rat at 20 mg/kg, po administered as single dose and measured upto 24 hrs by LC-MS/MS analysis; format: ADME, organism-based; conditions: in vivo
[35] = Metabolic stability in rat liver microsomes assessed as liver intrinsic clearance at 1 uM by LC-MS/MS analysis; format: ADME, Microsome; conditions: read-out: CLH
[36] = Metabolic stability in human liver microsomes assessed as liver intrinsic clearance at 1 uM by LC-MS/MS analysis; format: ADME, Microsome; conditions: read-out: CLH
[37] = Half life in male Sprague-Dawley rat at 20 mg/kg, po administered as single dose and measured upto 24 hrs by LC-MS/MS analysis; format: ADME, organism-based; conditions: in vivo
[38] = AUC (0 to t) in male Sprague-Dawley rat at 10 mg/kg, iv administered as single dose and measured upto 24 hrs by LC-MS/MS analysis; format: ADME, organism-based; conditions: in vivo
[39] = target: Voltage-gated inwardly rectifying potassium channel KCNH2 (Homo sapiens, UniProt Q12809); test: Inhibition of hERG expressed in CHO cells at -80 mV holding potential by manual patch clamp method; format: toxicity, cell-based
[40] = Metabolic stability in human liver microsomes assessed as elimination half life at 1 uM by LC-MS/MS analysis; format: ADME, Microsome; conditions: read-out: beta t1/2
[41] = Metabolic stability in human liver microsomes assessed as compound remaining at 1 uM measured after 60 mins by LC-MS/MS analysis; format: ADME, Microsome; conditions: read-out: Stability
[42] = Acute toxicity in ICR mouse assessed as spleen damage at 400 to 2000 mg/kg, po administered as single dose via oral gavage and measured on day 9; format: organism-based; conditions: in vivo, 216 h, dose 400-2000 mg/kg, time 9 day
[43] = Metabolic stability in rat liver microsomes assessed as drug elimination rate constant at 1 uM by LC-MS/MS analysis; format: ADME, Microsome
[44] = Acute toxicity in female ICR mouse assessed as effect on body weight at 400 to 2000 mg/kg, po administered as single dose via oral gavage and measured for 8 days; format: organism-based; conditions: in vivo, 192 h, dose 400-2000 mg/kg, time 8 day

Voltage-gated inwardly rectifying potassium channel KCNH2, sequence (Q12809 whole entry): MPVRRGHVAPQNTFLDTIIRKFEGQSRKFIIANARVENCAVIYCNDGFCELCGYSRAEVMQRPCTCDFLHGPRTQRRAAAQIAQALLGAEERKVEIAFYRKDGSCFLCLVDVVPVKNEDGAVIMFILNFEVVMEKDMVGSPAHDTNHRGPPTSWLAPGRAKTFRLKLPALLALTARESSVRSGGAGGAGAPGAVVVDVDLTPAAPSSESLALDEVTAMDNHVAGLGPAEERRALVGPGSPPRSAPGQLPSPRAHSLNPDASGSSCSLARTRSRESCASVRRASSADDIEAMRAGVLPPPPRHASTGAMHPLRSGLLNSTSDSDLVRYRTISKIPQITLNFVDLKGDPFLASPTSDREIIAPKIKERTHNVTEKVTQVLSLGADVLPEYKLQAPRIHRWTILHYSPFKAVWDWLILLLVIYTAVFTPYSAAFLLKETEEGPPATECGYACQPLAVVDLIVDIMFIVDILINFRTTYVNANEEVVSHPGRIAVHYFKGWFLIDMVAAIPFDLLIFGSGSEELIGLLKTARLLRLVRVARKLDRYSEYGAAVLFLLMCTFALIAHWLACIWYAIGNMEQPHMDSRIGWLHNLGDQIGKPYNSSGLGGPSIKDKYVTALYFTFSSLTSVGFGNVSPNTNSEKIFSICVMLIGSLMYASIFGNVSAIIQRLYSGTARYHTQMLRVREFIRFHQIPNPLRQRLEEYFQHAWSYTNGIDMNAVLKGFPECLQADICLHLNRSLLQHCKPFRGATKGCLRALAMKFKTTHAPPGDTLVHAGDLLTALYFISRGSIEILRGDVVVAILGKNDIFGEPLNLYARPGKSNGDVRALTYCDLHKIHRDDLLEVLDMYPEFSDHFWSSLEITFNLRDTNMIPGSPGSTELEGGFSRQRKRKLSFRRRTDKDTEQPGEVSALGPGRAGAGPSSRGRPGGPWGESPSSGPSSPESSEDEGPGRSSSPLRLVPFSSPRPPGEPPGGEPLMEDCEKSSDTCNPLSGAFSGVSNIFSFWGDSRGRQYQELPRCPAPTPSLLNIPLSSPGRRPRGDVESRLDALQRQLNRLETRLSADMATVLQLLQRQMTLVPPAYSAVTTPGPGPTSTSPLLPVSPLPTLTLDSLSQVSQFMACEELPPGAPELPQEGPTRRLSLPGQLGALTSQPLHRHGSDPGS

O=C(O)c1cn(C2CC2)c2cc(Nc3nccc(Cc4ccc(F)cc4F)n3)ccc2c1=O
remaining at 1 h, 1 µM [1]: 35.7%
C0 at 24 h [2]: 11800 ng/mL
Activity [3]: Non-Toxic
k el at 1 µM [4]: 0.00025 s⁻¹
clearance [5]: 18.5 mL/min/kg
Activity [6]: Non-Toxic
Cmax [7]: 31 ng/mL
half-life at 1 µM [8]: 0.683 h
Activity [9]: Non-Toxic
Tmax [10]: 2.67 h
MIC [11]: > 64 µg/mL
microsomal CLint at 1 µM [12]: 33.8 µL/min/mg
AUC(0-inf) [13]: 9100 ng·h/mL
half-life [14]: 4.23 h
Activity [15]: Non-Toxic
AUC(0-inf) [16]: 171 ng·h/mL
MRT inf [17]: 1.2 h
Activity [18]: Non-Toxic
MIC [19]: 0.39 µg/mL (≈ 0.87 µM)
Activity [20]: Non-Toxic
AUC(0-t) at 24 h [21]: 162 ng·h/mL
Activity [22]: Non-Toxic
MIC [23]: 0.25 µg/mL (≈ 0.558 µM)
Activity [24]: Non-Toxic
MIC [25]: 0.25 µg/mL (≈ 0.558 µM)
MRT inf [26]: 4.2 h
Activity [27]: Non-Toxic
microsomal CLint at 1 µM [28]: 30.8 µL/min/mg
MIC [29]: 0.39 µg/mL (≈ 0.87 µM)
bioavailability [30]: 0.9%
Activity [31]: Non-Toxic
MRT last at 24 h [32]: 1.01 h
Activity [33]: Non-Toxic
MRT last at 24 h [34]: 3.51 h
CLint scaled at 1 µM [35]: 60.9 mL/min/kg
CLint scaled at 1 µM [36]: 29.1 mL/min/kg
half-life [37]: 2.16 h
AUC(0-t) at 24 h [38]: 9060 ng·h/mL
IC50 [39]: > 40 µM
half-life at 1 µM [40]: 0.75 h
remaining at 1 h, 1 µM [41]: 40.9%
Activity [42]: Non-Toxic
k el at 1 µM [43]: 0.000283 s⁻¹
Activity [44]: Non-Toxic
